From ChEMBL document CHEMBL1201862, “PubChem BioAssay data set” (2004)
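Results reflect a 48-hour exposure of cells in 96-well plates to compound at five concentrations. Here, GI50 denotes the concentration required for 50% inhibition of growth.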 Activity calls are given as the source filed them. Rule as the data show it: active = GI50 up to about 1.1 µM and inactive = higher.

What was measured:
Test in all cases: DTP human tumour cell line panel, 48 h
[1] = tested on: UACC-62
[2] = tested on: COLO 205
[3] = tested on: RPMI-8226
[4] = tested on: UACC-257
[5] = tested on: SNB-75
[6] = tested on: A498
[7] = tested on: NCI-H23
[8] = tested on: 786-0
[9] = tested on: SR
[10] = tested on: SF-295
[11] = tested on: SK-OV-3
[12] = tested on: NCI-H522
[13] = tested on: DU-145
[14] = tested on: SF-268
[15] = tested on: MOLT-4
[16] = tested on: T47D
[17] = tested on: SW-620
[18] = tested on: HCC 2998
[19] = tested on: K562
[20] = tested on: Malme-3M

Measured: GI50

O=C1NC2(CN3CCC2CC3)C(=O)N1CN(Cc1ccccc1)c1ccccc1 (stereo not drawn)
inactive: [1] > 100 µM | [2] 92.7 µM | [3] 28.2 µM | [4] 46 µM | [5] > 100 µM | [6] > 100 µM | [7] 44.4 µM | [8] > 100 µM | [9] 25.3 µM | [10] > 100 µM | [11] > 100 µM | [12] 94.6 µM | [13] 48.4 µM | [14] 37.6 µM | [15] 68.7 µM | [16] 39 µM | [17] 31.7 µM | [18] 39.6 µM

[O-][S+](CCCl)c1c2ccccc2nc2ccccc12 (stereo not drawn)
inactive: [1] > 100 µM | [2] 36.9 µM | [4] > 100 µM | [5] > 100 µM | [6] > 100 µM | [7] 75 µM | [8] 50.2 µM | [9] > 100 µM | [10] > 100 µM | [11] > 100 µM | [12] 8.45 µM | [19] > 100 µM | [13] 22.9 µM | [14] > 100 µM | [15] 37.2 µM | [16] > 100 µM | [20] > 100 µM | [17] 11.3 µM | [18] > 100 µM

c1cn(C23C4C5C6C4C2C6C53)cn1 (stereo not drawn)
inactive: [2] > 100 µM | [3] > 100 µM | [4] > 100 µM | [5] > 100 µM | [6] > 100 µM | [7] > 100 µM | [8] > 100 µM | [9] > 100 µM | [10] > 100 µM | [11] > 100 µM | [12] > 100 µM | [19] > 100 µM | [13] > 100 µM | [14] > 100 µM | [15] > 100 µM | [16] > 100 µM | [17] > 100 µM | [18] > 100 µM

O=C(NCc1ccc(Cl)c(Cl)c1)c1nc2ccccc2nc1NCc1ccc(Cl)c(Cl)c1
inactive: [1] > 100 µM | [2] > 100 µM | [4] > 100 µM | [5] > 100 µM | [6] > 100 µM | [7] > 100 µM | [8] > 100 µM | [9] > 100 µM | [10] > 100 µM | [12] > 100 µM | [19] > 100 µM | [13] > 100 µM | [14] > 100 µM | [16] > 100 µM | [17] > 100 µM | [18] > 100 µM

COC1=CC(=O)O/C1=C(\OC)C1OC1c1ccccc1 (stereo not drawn)
inactive: [1] > 100 µM | [2] > 100 µM | [3] > 100 µM | [4] > 100 µM | [6] > 100 µM | [7] > 100 µM | [8] > 100 µM | [9] 13 µM | [10] > 100 µM | [11] > 100 µM | [12] > 100 µM | [13] > 100 µM | [14] > 100 µM | [15] 53.7 µM | [16] 76 µM | [20] > 100 µM | [17] > 100 µM | [18] > 100 µM

O=[N+]([O-])c1cccc(/N=N/c2c(O)c(S(=O)(=O)O)cc3cc(S(=O)(=O)O)ccc23)c1
inactive: [1] > 100 µM | [2] > 100 µM | [4] > 100 µM | [5] > 100 µM | [6] > 100 µM | [7] > 100 µM | [8] > 100 µM | [9] > 100 µM | [10] > 100 µM | [11] > 100 µM | [12] > 100 µM | [19] > 100 µM | [13] > 100 µM | [14] > 100 µM | [15] > 100 µM | [16] > 100 µM | [20] > 100 µM | [17] > 100 µM | [18] > 100 µM
